Measurements published in patent US11434267B2, “Peptides having reduced toxicity that stimulate cholesterol efflux” (The Regents of the University of California, priority 2013, dated 2022).
Non-standard residues stand in square brackets, D forms with d. No end group written: not given here. Cit = NC(=O)NCCC[C@H](N)C(=O)O

The substances below were run on C57Bl/6 mice (assay: Glucose tolerance test in fasted C57Bl/6 mice after single IP peptide injection). Settings: single IP 300 mg/kg, 2 g/kg glucose IP.
Type: in vivo, mouse
Experimental: Peptide may additionally be screened for the ability to lower glucose using methods illustrated in the EXAMPLES section, e.g., Example 31. For example, the ability to lower glucose can be evaluated using ing animal models, such as mice or rats. Mice, e.g., C57Bl/6 mice, fed a normal lab chow diet are injected IP with a peptide that is undergoing evaluation, e.g., at a does of 300 mg/kg, and the glucose levels in the blood are measured at a time period, e.g. 6 hours, following injection and compared to the levels of blood glucose in a control animal that received PBS. Alternatively, peptides may be screened for the ability to lower glucose as illustrated in Example 36. For example, 300 mg/kg peptide injected IP into to fasted animals and 3 h thereafter a glucose tolerance test is performed by injecting 2 g/kg glucose during which the glucose concentration is followed for 120 minutes. Peptides that have glucose lowering activity show statistically significant lowered glucose relative to controls. Typically, peptides lower glucose by at least 5%, often at least 10% or greater, relative to controls. Peptides may also be evaluated for glucose-lowering activity in animal models of obesity, e.g., DIO mice. Further, peptides may be evaluated for the ability to improve sensitivity to insulin, e.g., as described in Example 31 of the EXAMPLES section.
This example illustrates that CS6253 and T6991-2 lower blood glucose concentrations upon glucose challenge in C57Bl/6 mice (FIG. 51). Fasted male C57Bl/6 mice on chow diet received a single intraperitonel (IP) injection of either vehicle alone or 300 mg/kg of lipid-free peptide, as described for safety studies in FIG. 5. Following treatment, a glucose tolerance test was performed via IP injection of 2 g/kg glucose. Blood was collected from the tail vein at the indicated times and blood glucose measured using a glucometer. Panels A and B— Blood glucose concentrations expressed as mass values over time following glucose challenge, with corresponding area under the curve, respectively. (Bar graph, panel B, bars from left to right are PBS, CS6253, T699102, 2, 4, 5, 6, and 9, respectively) Values are means±SD, n=4 mice per group.

Row | Substance | blood glucose upon glucose challenge
1 | T8212-2: CS6253 analog with combination of leucine and isoleucine residues (L→I) (EV[Cit]SKLEEWLAAI[Cit]ELAEELLARLKS) [Peptide T8212-2] | poorly active in lowering blood glucose responses
2 | T8212-4: CS6253 analog with combination of leucine and isoleucine residues (L→I) (EV[Cit]SKLEEWIAAL[Cit]ELAEEILARLKS) [Peptide T8212-4] | poorly active in lowering blood glucose responses
3 | T8212-5: CS6253 analog with combination of leucine and isoleucine residues (L→I) (EV[Cit]SKIEEWIAAL[Cit]ELAEEILARLKS) [Peptide T8212-5] | poorly active in lowering blood glucose responses
4 | T8212-6: CS6253 analog with combination of leucine and isoleucine residues (L→I) (EV[Cit]SKIEEWLAAI[Cit]EIAEELLARLKS) [Peptide T8212-6] | poorly active in lowering blood glucose responses
5 | T8212-9: CS6253 analog with combination of leucine and isoleucine residues (L→I) (EV[Cit]SKIEEWIAAI[Cit]EIAEEIIARLKS) [Peptide T8212-9] | poorly active in lowering blood glucose responses

What follows are substances tested against T1, ABCA1 (Mus musculus, UniProt P41233) (assay: ABCA1 protein stabilization in J774 macrophages (Western blot)). Settings: J774 after cAMP, 6 h chase.
T1 construct: treated (18 h) with a cAMP analog to induce ABCA1 protein expression; endogenous in cells; host or cells: J774 macrophages
T1 sequence (P41233 whole entry): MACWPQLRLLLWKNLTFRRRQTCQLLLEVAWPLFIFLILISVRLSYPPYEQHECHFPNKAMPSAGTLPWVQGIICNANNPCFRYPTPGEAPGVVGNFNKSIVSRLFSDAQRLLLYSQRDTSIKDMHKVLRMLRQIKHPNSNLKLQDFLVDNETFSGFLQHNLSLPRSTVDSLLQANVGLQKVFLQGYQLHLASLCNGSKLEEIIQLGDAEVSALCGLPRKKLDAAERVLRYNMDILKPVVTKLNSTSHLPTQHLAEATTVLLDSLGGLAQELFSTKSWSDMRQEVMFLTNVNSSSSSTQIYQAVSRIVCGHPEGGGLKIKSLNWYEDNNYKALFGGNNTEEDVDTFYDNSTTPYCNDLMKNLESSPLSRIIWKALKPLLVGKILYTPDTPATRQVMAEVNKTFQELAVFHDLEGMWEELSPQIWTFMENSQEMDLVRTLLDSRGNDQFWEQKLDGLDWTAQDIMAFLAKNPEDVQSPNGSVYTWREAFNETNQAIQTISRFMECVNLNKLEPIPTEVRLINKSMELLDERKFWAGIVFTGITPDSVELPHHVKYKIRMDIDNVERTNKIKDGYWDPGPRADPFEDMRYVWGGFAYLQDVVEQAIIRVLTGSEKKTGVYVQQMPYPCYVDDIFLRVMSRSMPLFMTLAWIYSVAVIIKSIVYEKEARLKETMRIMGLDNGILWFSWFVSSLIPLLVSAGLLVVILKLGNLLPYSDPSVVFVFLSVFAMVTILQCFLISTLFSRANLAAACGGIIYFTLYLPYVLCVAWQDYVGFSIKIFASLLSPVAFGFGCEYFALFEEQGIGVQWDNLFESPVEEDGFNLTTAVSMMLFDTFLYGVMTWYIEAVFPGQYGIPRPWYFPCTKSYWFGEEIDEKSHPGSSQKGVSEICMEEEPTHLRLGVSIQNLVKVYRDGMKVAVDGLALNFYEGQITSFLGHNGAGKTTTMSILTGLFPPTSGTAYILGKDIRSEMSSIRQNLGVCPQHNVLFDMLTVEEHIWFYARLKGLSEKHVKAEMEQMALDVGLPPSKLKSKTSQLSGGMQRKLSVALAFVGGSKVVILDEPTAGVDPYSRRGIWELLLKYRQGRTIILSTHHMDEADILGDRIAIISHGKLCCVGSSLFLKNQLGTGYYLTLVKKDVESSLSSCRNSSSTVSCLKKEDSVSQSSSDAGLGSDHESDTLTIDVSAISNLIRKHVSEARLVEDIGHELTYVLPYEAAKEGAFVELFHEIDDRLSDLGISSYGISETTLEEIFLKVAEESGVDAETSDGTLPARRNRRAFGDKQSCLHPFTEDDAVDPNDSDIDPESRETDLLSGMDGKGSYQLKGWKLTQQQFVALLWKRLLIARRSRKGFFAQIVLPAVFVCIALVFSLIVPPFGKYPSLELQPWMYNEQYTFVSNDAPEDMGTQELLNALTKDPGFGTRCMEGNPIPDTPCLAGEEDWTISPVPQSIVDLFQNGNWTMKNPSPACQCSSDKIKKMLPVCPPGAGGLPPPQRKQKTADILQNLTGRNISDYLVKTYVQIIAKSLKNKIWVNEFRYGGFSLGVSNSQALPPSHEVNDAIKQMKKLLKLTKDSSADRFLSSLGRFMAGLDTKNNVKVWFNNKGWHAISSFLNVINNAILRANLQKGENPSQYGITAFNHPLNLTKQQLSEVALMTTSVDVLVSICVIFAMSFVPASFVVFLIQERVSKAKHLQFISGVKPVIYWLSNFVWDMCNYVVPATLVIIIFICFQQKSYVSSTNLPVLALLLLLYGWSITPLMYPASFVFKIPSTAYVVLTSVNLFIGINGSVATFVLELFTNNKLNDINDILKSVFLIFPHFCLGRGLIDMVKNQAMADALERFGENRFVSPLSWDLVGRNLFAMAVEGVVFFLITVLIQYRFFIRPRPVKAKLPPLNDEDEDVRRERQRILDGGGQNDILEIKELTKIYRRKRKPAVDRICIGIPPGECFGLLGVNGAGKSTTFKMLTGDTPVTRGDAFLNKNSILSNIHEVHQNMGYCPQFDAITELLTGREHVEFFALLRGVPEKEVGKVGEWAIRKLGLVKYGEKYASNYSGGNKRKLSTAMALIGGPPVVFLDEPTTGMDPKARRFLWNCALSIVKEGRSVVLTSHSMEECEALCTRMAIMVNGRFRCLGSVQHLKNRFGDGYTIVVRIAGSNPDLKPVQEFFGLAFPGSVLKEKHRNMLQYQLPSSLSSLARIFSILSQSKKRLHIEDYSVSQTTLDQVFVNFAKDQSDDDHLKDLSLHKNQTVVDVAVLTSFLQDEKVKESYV
Type: cell-based
Experimental: In some embodiments, the stabilization of ABCA is measured by direct measurement of ABCA (e.g., ABCA protein, or nucleic acid) using a cell based assay. Cell based assays can be performed in any cells in which ABCA is expressed (e.g., J774 macrophages), including cells which have been transfected with ABCA (e.g. HeLa cells). Any cell type can be used. For example, J774 macrophages can be used to assess relative ABCA1 protein levels in the presence and absence of polypeptides of the invention. The cells are first contacted with a compound that will induce ABCA (e.g., cAMP or a cAMP analogue such as, 8-bromo-cAMP) to upregulate ABCA (e.g., ABCA1) expression, then exposed to […] polypeptides of the invention in the absence of the cAMP stimulus to evaluate whether ABCA1 protein was stabilized or degraded. Relative levels of ABCA1 protein can be assessed using any means known in the art including, e.g., immunoblot analysis of cell membranes (Oram et al., J. Biol. Chem., 278:52379-52385 (2003)) or hybridization of nucleic acid probes to ABCA mRNA.
(FIG. 29). J774 macrophages were used for experiments. Panel A—Cells were labeled (48 h) with 3H cholesterol and treated with (right bars) and without (left bars) a cAMP analog to modulate ABCA1 expression. […]

Row | ABCA1 protein level (stabilization) | Substance
6 | maintained at high-levels | apoA-I: full-length native apolipoprotein A-I, lipid-free
